78 compounds from paper PMC12040169 (PLOS Biology, 2025) can be followed below.

The structures appear in SMILES notation.

This data set in a line: in vitro. The note with it: human, hela cells, % viability.

By viability is commonly meant a read-out of living cells in per cent, often relative to untreated cells.

Consider `O=[N+]([O-])c1ccc(CN2C[C@H](O)C[C@H]2c2nc(-c3ccccc3)no2)cc1` [CBK288833], for which the viability at 28.5 h, 10 µM came to 108%. `COc1c(C)cnc(COC(=O)N2CCOCC2)c1C` [CBK200145]: the viability at 28.5 h, 10 µM was found to be 105%.

`CC(Cc1cccs1)NC(=O)c1cccc(-n2cnnc2)c1` (stereo not drawn) [CBK282443]: the viability at 28.5 h, 10 µM was 102%. Regarding `CC(c1cccc(F)c1)n1cc(C(=O)NCCc2ccco2)nn1` (stereo not drawn) [CBK283582], the viability at 28.5 h, 10 µM was 102%. `O=C(O)c1ccc(Oc2ccc3c(c2)C(=O)N(c2nccs2)C3=O)cc1` [CBK261200]: the viability at 28.5 h, 10 µM was 101%.

On to `Cc1cccc2c1CC(=O)NC21CCN(Cc2ccccc2)CC1` [CBK039819], for which the viability at 28.5 h, 10 µM is 87%. For the compound `FC(F)(F)c1ccnc(OCCNc2ccccc2)n1` [CBK115839], the viability at 28.5 h, 10 µM was determined as 90.8%.

Take `COc1ccc(C(O)Cn2c(=N)n(CCN3CCCCC3)c3ccccc32)cc1` (stereo not drawn) [CBK262930C]: the viability at 28.5 h, 10 µM was 98.8%.

`Cc1ccc(S(=O)(=O)NCCSc2ccc(Cl)cc2)cc1[N+](=O)[O-]` [CBK264126]: the viability at 28.5 h, 10 µM amounted to 96.8%. In the case of `Cc1nc2cccnc2n1CCNC(=O)c1cccc(Cl)c1` [CBK283593], the viability at 28.5 h, 10 µM came to 97.9%. For `O=C(CSc1cnn[nH]1)Nc1cccc(C(F)(F)F)c1` [CBK269888], the viability at 28.5 h, 10 µM turned out to be 90.8%. Turning to `CS(=O)(=O)N1CCN(c2ccccc2NC(=O)COc2ccccc2Cl)CC1` [CBK269250], the viability at 28.5 h, 10 µM amounted to 103%.

In the case of `COc1ccc([C@@]23CC[C@@H](NC(=O)Nc4ccc(OC)c(C(F)(F)F)c4)C[C@@H]2N(C)CC3)cc1OC` [CBK051268T], the viability at 28.5 h, 10 µM amounted to 107%. Same read-out and setting: the result for `CS(=O)(=O)N(CC(=O)Nc1ccccc1F)c1ccc(I)cc1` [CBK265265] reads 97.4%; that for `CCc1nc(CNC(=O)c2cc3cc(F)ccc3n2C)no1` [CBK281414], 93.6%.

As for `O=C(NCCNc1cnccn1)c1cncc(Br)c1` [CBK304278], the viability at 28.5 h, 10 µM was 111%. Still for that read-out and setting: the result for `Cc1nnc(NC(=O)Cc2ccc(F)cc2)s1` [CBK287360] reads 103%; that for `O=[N+]([O-])c1cccc(-c2ccc(-c3nn4c(Cc5ccccc5)nnc4s3)o2)c1` [CBK267310], 86.4%; that for `Cc1cc(-n2c(C)cc(C(=O)CSc3n[nH]c(=O)n3CC3CCCO3)c2C)no1` (stereo not drawn) [CBK295589], 112%. Still for that read-out and setting: the result for `CC(NC(=O)c1ccccc1)c1nnc(SCC(=O)N2CCOCC2)n1C` (stereo not drawn) [CBK269647] reads 86%; that for `O=C(c1cc(F)c(F)cc1F)N1CCC2(CCCN(CCCn3c(=O)[nH]c4ccccc43)C2)C1` (stereo not drawn) [CBK132004], 84.9%; that for `COc1cc([C@@]23CC[C@@H](NC(=O)Nc4cccc(Cl)c4)C[C@@H]2N(C)CC3)cc(OC)c1OC` [CBK039212], 93.7%. Turning to `CCC(CO)Nc1cncc(-c2cc(OC)c(OC)c(OC)c2)n1` (stereo not drawn) [CBK037882], the viability at 28.5 h, 10 µM is 98.9%. As to `CC(CC(=O)N1CCC(c2cc3cccnc3[nH]2)CC1)n1cccn1` (stereo not drawn) [CBK285036], the viability at 28.5 h, 10 µM is 100%. Consider `CC(=O)c1ccc(-c2ccc3c(c2)COC2(CCN(C(C)=O)CC2)O3)s1` [CBK060967], for which the viability at 28.5 h, 10 µM (bulk resorufin, single well) is 109%. For `COc1ccc(C(=O)N2CCC3(CCN(CCN4CCCCC4)C3)C2)cc1OC` (stereo not drawn) [CBK137113T], the viability at 28.5 h, 10 µM is 103%.

For the compound `O=C(Cn1ccnc1)NC(Cc1cccs1)c1nccs1` (stereo not drawn) [CBK285092], the viability at 28.5 h, 10 µM worked out at 93.2%. Take `Cc1ccc(S(=O)(=O)Nc2nnc(C3CCCCC3)s2)cc1` [CBK022722]: the viability at 28.5 h, 10 µM worked out at 101%. With `CCc1nc2ccccc2c(NC(=O)CN2CCCCCC2)c1C` [CBK261580G], the viability at 28.5 h, 10 µM amounted to 90.3%. `Nc1nc(OCc2cccs2)cnc1-c1ccsc1` [CBK145161]: the viability at 28.5 h, 10 µM came to 95.8%. With `COC(=O)c1sccc1NC(=O)c1ccc(F)cc1Cl` [CBK270325], the viability at 28.5 h, 10 µM was found to be 88.2%.

Regarding `CSc1nc(-n2nc(C)cc2C)c2c3c(sc2n1)COC(C)(C)C3` [CBK268906], the viability at 28.5 h, 10 µM was 89.7%. Still for that read-out and setting: the result for `CC(C)c1ccc(CN2CCN(c3nccnc3NS(C)(=O)=O)CC2)cc1` [CBK084271] reads 91%; that for `CCC(=O)NNC(=O)c1cc(O)nc2ccccc12` [CBK263495], 98.1%; that for `CCn1c(CN2CC(n3nc(C)cc3C)C2)nc2c(F)cccc21` [CBK306220], 82%. With `Cc1nc(C)n(CCNC(=O)Cc2coc3cc(C)c(C)cc23)n1` [CBK282613], the viability at 28.5 h, 10 µM came to 90.7%.

`COc1cc(CNc2nccnc2-c2ccc(F)cc2)cc(OC)c1OC` [CBK037328]: the viability at 28.5 h, 10 µM was determined as 90.3%.

For `COc1cc(Cc2c(OCCN(C)C)nc3ccccn3c2=O)cc(OC)c1OC` [CBK005004C], the viability at 28.5 h, 10 µM worked out at 99.9%. Still for that read-out and setting: the result for `Cc1nnc(SCc2nc(N)nc(Nc3ccccc3)n2)s1` [CBK266436] reads 109%; that for `Cc1cc(/C=C(/C#N)c2cccc(F)c2)c(C)n1-c1ccc(S(N)(=O)=O)cc1` [CBK268268], 99.9%; that for `CN(C)CC1CCCN(C(=O)[C@@H]2C[C@@H]3C=C[C@H]2C3)C1` (stereo partly drawn) [CBK282063], 98%.

For `CN(Cc1ccccc1)C(=O)[C@@H]1Cc2[nH]cnc2CN1Cc1cc2ccccc2o1` [CBK288978], the viability at 28.5 h, 10 µM turned out to be 108%. Same read-out and setting: the same measure for `CC(C)(C)OC(=O)N1CCC(N2CCc3cc(-c4ccc(S(C)(=O)=O)cc4)ccc3C2)CC1` [CBK165796]: 82.7%; for `COc1ccc(C(NC(=O)c2cccc(OC)c2)c2cc(Cl)c3cccnc3c2O)cc1` (stereo not drawn) [CBK264027]: 90.7%.

As to `COc1ccc2[nH]cc(CCNC(=O)[C@@H]3Cc4c([nH]c5ccccc45)C4(CCN(Cc5ccc(F)cc5)C4)N3)c2c1` (stereo partly drawn) [CBK066937], the viability at 28.5 h, 10 µM stood at 98%. Consider `CC(=O)c1ccc(-c2nc(NS(C)(=O)=O)cc3cccnc23)cc1` [CBK061874], for which the viability at 28.5 h, 10 µM was 96.3%. For `NC(=O)CSc1nnc(-c2cccnc2)n1Cc1ccccc1` [CBK268672], the viability at 28.5 h, 10 µM is 99.2%. On to `CC(C(=O)NC(c1ccncc1)c1cccs1)n1ccnc1` (stereo not drawn) [CBK281438], for which the viability at 28.5 h, 10 µM was 90.9%.

For the compound `N#CCCN(C(=O)NCc1c(Cl)cccc1Cl)C1CCCCC1` [CBK156371], the viability at 28.5 h, 10 µM was 88%. For the compound `COc1ccc2c(c1)C1(CC(=O)N(CC(=O)N(C)C)C1=O)C(=O)N2Cc1ccc2ccccc2n1` (stereo not drawn) [CBK075923], the viability at 28.5 h, 10 µM is 93.7%. For `Cc1c(C(=O)NCc2ccncc2)nnn1-c1cccc(C(F)(F)F)c1` [CBK107396], the viability at 28.5 h, 10 µM came to 88.7%. In the case of `CN(Cc1ccccc1)C1CCN(Cc2ccccn2)CC1` [CBK264622G], the viability at 28.5 h, 10 µM is 107%. For `CS(=O)(=O)c1ccc(-c2ccc3c(c2)OCCN(C2CCN(C(=O)CC(F)(F)F)CC2)C3)cc1` [CBK169260], the viability at 28.5 h, 10 µM turned out to be 90.8%. `CN(C)S(=O)(=O)c1ccc(CCC(=O)O)cc1` [CBK287216]: the viability at 28.5 h, 10 µM came out at 92%. Same read-out and setting: the result for `c1ccc(N2CCN(c3nc4cc5c(cc4s3)OCO5)CC2)cc1` [CBK287495] reads 108%; that for `CCN1CCN(c2ccc(NC(=O)Cn3cnc4c(=O)n(C)c(=O)n(C)c43)cc2Cl)CC1` [CBK269535], 94.3%. `Cc1noc(C)c1C[S+]([O-])c1ccc(Br)cc1` (stereo not drawn) [CBK034195]: the viability at 28.5 h, 10 µM was found to be 95.6%.

Consider `CC1=C(C(=O)OC(C)C)C(c2cccc(I)c2)C2=C(CCCC2=O)N1` (stereo not drawn) [CBK026317], for which the viability at 28.5 h, 10 µM worked out at 86.5%. Same read-out and setting: the result for `COC(=O)c1cc(C)sc1NC(=S)Nc1ccn(Cc2ccc(Br)cc2)n1` [CBK266934] reads 99.6%; that for `CC(C)(C)C1CCc2c(sc(NC(=O)CCC(=O)O)c2C(=O)Nc2ccccc2Cl)C1` (stereo not drawn) [CBK264146], 87.2%. Still for that read-out and setting: the result for `Cc1nc2sccn2c1-c1csc(Nc2cccc(C(=O)O)c2)n1` [CBK263291B] reads 91.9%; that for `COc1cc(-c2nnc(SCC(=O)O)n2-c2ccccc2)cc(OC)c1OC` [CBK131695], 104%. In the case of `O=C(O)COc1ccc(/C=C2\C(=O)NC(=O)N(c3ccc(OCc4ccccc4)cc3)C2=O)cc1` [CBK265449], the viability at 28.5 h, 10 µM (bulk resorufin, single well) amounted to 83.6%. `Cc1cc(C)n(CCCN(C)Cc2c(C)nc3ccccn23)n1` [CBK281901]: the viability at 28.5 h, 10 µM is 90%. For the compound `O=C(Nc1ccc(Br)cc1C(=O)c1ccccc1)c1ccc([N+](=O)[O-])s1` [CBK066838], the viability at 28.5 h, 10 µM is 111%. With `O=C1NCC2(CCCN(Cc3ccccc3F)C2)Oc2ccccc21` (stereo not drawn) [CBK284901], the viability at 28.5 h, 10 µM is 95%. `O=C(O)CCC1NC(=O)N(C2CCCCC2)C1=O` (stereo not drawn) [CBK287046]: the viability at 28.5 h, 10 µM came out at 77.3%. On the same count and under the same terms, the result for `COc1ccc(C(=O)C2=C(O)C(=O)N(CCCN(C)C)C2c2ccncc2)cc1Cl` (stereo not drawn) [CBK266529] reads 109%. Same read-out and setting: the result for `CSc1cccc(NC(=S)N2CCCCC2CCN2CCOCC2)c1` (stereo not drawn) [CBK028765] reads 83.9%; that for `CN1CCN([C@H]2[C@@H]3OC[C@@H](O3)[C@@H](NCc3ccc(CO)o3)[C@@H]2O)CC1` [CBK288823], 91.5%.

Turning to `COc1cccc(CN2CCCC(NC(=O)NCc3cccs3)C2)c1` (stereo not drawn) [CBK307357], the viability at 28.5 h, 10 µM was found to be 73.3%.

For the compound `CC(Sc1nc2ccc(Cl)cc2o1)C(=O)N1CCOCC1` (stereo not drawn) [CBK305164], the viability at 28.5 h, 10 µM was 92.1%. In the case of `CCOc1ccc(Nc2ncnc3c2cnn3Cc2ccccc2)cc1` [CBK072752], the viability at 28.5 h, 10 µM was 97.8%.

Take `COc1ccnc(N2CCN(C(=O)c3ccc(C)n3C)CC2)n1` [CBK305803]: the viability at 28.5 h, 10 µM came to 84.7%. The same measure, in the same setting: the same measure for `Cc1nn(CC(=O)N(C(C)C)C(C)C)c(=O)c2cc3occc3n12` [CBK283655]: 98.4%; for `CCN1C(=O)C2(CC(=O)N(CC3CCCCC3)C2=O)c2cc(C)ccc21` (stereo not drawn) [CBK075216]: 98.2%.

Consider `Oc1ccc(-c2cccc(N3CCN(c4ccccn4)CC3)n2)cc1` [CBK037028], for which the viability at 28.5 h, 10 µM came out at 103%.

On to `O=C(CSCc1c(F)cccc1Cl)NCc1ccncc1` [CBK268381], for which the viability at 28.5 h, 10 µM turned out to be 87.1%.
